The source of these data is PMC6352951, “Computationally driven discovery of phenyl(piperazin-1-yl)methanone derivatives as reversible monoacylglycerol lipase (MAGL) inhibitors” (Journal of Enzyme Inhibition and Medicinal Chemistry, 2019).

One test addresses T1, Human recombinant MAGL (Homo sapiens, UniProt Q99685).
T1 construct: purchased Cayman Chemical
T1 sequence (Q99685 1-303): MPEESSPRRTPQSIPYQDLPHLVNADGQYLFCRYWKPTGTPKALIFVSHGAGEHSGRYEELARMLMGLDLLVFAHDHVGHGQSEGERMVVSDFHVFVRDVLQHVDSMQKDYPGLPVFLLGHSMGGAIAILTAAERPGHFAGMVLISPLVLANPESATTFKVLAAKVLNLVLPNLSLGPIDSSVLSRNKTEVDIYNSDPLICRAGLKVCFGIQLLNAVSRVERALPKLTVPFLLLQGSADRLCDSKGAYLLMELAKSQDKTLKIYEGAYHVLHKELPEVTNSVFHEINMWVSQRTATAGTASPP
The test is described as follows: MAGL inhibition assay (4-NPA substrate, absorbance at 405 nm). It is filed as biochemical. The method, then: Compounds 1–3 were purchased from ChemBridge corporation, whereas compounds 4 and 5 were synthesized. Human recombinant MAGL, 4-nitrophenyl acetate substrate (4-NPA) and CAY10499 were purchased from Cayman Chemical. The IC50 values were generated in 96-well microtiter plates. The MAGL reaction was conducted at rt at a final volume of 200 µL in […] Tris buffer, pH 7.2, containing […] EDTA. A total of 150 µL of 4-NPA 133.3 µM was added to 10 µL of DMSO containing the appropriate amount of compound. The reaction was initiated by the addition of 40 µL of MAGL (11 ng/well) in such a way that the assay was linear over 30 min. The final concentration of the analyzed compounds ranged from 10 to 0.00001 µM for CAY10499 and from 200 to 0.0128 µM for the other compounds. After the reaction had proceeded for 30 min, absorbance values were then measured by using a VictorX3 PerkinElmer instrument at 405 nm. Two reactions were also run: one reaction containing no compounds and the second one containing neither inhibitor nor enzyme. To remove possible false positive results, a blank analysis was carried out for each compound concentration and the final absorbance results were obtained detracting the absorbance produced by the presence of all the components except MAGL in the same conditions.

Test [1] relates to breast MDA-MB-231 cancer cells. Put plainly: Cell viability assay. The note with it: 96 h, mean ± SD. It is filed as cell-based, human. How it is done:
(§1) Human breast MDA-MB-231, colorectal HCT116 and ovarian CAOV3, OVCAR3, and SKOV3 cancer cells (from ATCC) were maintained at 37 °C in a humidified atmosphere containing 5% CO2 according to the supplier. Cells (5 × 10^2) were plated in 96-well culture plates. The day after seeding, vehicle or compounds were added at different concentrations to the medium. Compounds were added to the cell culture at a concentration ranging from 200 to 0.02 μM. Cell viability was measured after 96 h according to the supplier (Promega, cat. n° G7571) with a Tecan M1000 PRO instrument. IC50 values were calculated from logistical dose-response curves. Averages were obtained from triplicates and error bars are standard deviations.

Test [2] relates to colorectal HCT116 cancer cells. The test is described as follows: Cell viability assay. It is filed as cell-based, human. The note with it: 96 h, mean ± SD. The method, then:
as §1

Test [3] has as its system ovarian CAOV3 cancer cells. Put plainly: Cell viability assay. Type of test: cell-based, human. The following applies: 96 h, mean ± SD. How it is done: as §1
Test [4] concerns ovarian OVCAR3 cancer cells. Put plainly: Cell viability assay. The following applies: 96 h, mean ± SD. Type of test: cell-based, human. The method, then:
as §1

Test [5] relates to ovarian SKOV3 cancer cells. The test is described as follows: Cell viability assay. The note with it: 96 h, mean ± SD. It is filed as cell-based, human. How it is done:
as §1

For test [6], the system named is MDA-MB-231, HCT116, CAOV3, OVCAR3 and SKOV3 cancer cells. The test is described as follows: Cell viability assay, range over all tested cell lines. The following applies: Homo sapiens, 96 h. It is filed as cell-based. How it is done:
as §1

Setting [7] is: 30 min reaction, no DTT, read-out: MAGL inhibition IC50.

Where two headings read alike, the source gives them in different places.

In general, IC50 refers to the concentration that inhibits the measured activity by half. As to `O=C(c1ccc(-c2cccc3ccc(O)cc23)cc1)N1CCN(c2cccc(Cl)c2)CC1` [compound 4], the half-maximal inhibitory concentration (IC50) at Human recombinant MAGL (setting [7]) came to 6.1 µM; on Human recombinant MAGL (in the presence of 10 μM DTT, read-out: MAGL inhibition IC50 in the presence of DTT), 6.2 µM; in test [1] (Homo sapiens, MDA-MB-231), 59 ± 5 µM; in test [2] (Homo sapiens, HCT-116), 48 ± 2 µM; in test [3] (Homo sapiens, Caov-3), 51 ± 3 µM; in test [4] (Homo sapiens, OVCAR-3) it was 72 ± 4 µM. For the same compound, the IC50 in test [5] (Homo sapiens, SK-OV-3) is 31 ± 2 µM; in test [6], 31 to 72 µM. Further, the “Effect of preincubation time on MAGL inhibitory potency (reversibility)” value at Human recombinant MAGL (preincubated with the enzyme for 0, 30 and 60 min before adding substrate) is “did not show any significant increase in inhibitory potency at longer incubation times”. Moreover, the “Fold improvement of MAGL inhibition activity with respect to compound 1” value at Human recombinant MAGL (ratio of IC50 values vs compound 1) worked out at 4 fold. Moreover, the “Fold higher MAGL inhibition activity than compound 5” value at Human recombinant MAGL (ratio of IC50 values vs compound 5) is on record as 5 fold.
In the case of `O=C(c1ccc(-c2ccccc2)cc1)N1CCN(c2cccc3ccc(O)cc23)CC1` [compound 5], the IC50 on Human recombinant MAGL (setting [7]) worked out at 31.9 µM.
Consider `O=C(c1ccc(-c2ccccc2)cc1)N1CCN(c2cccc(Cl)c2)CC1` [compound 1], for which the IC50 at Human recombinant MAGL (setting [7]) stood at 23.3 µM.
For the compound `COc1nn(-c2ccc(NC(=O)OCc3ccccc3)c(C)c2)c(=O)o1` [CAY10499, reference compound], the IC50 in test [1] is 82 ± 5 µM; in test [2] it was 45 ± 3 µM; in test [3] it was 90 ± 6 µM; in test [4] it was 52 ± 3 µM; in test [5], 38 ± 4 µM.
